From patent US4442093A, “Method for administering 24,25-dihydroxycholecalciferol to persons suffering from hypercalcemia” (Kureha Kagaku Kogyo Kabushiki Kaisha, priority 1981, dated 1984)
Read-outs that look alike come from different tables or passages of the source.

Tests used:
blood sugar level = assay: Blood sugar in patients (Example 23); type: in vivo, human; conditions: patients suffering from glycosuria
Experimental: Three patients shown in Table 17 were treated by oral administration of a daily dose of 4 to 6 micrograms of 24R,25-(OH)2 -D3 in a form of the soft capsule composition obtained in Example 6 for 3 continuous weeks. After the completion of administration, the patient was fasted for a night and their blood specimen was collected at 11:00 a.m. in the next morning.
Effectiveness of reducing blood sugar level (ERBS) is calculated from the […]

[1] = 30-day repeated oral administration toxicity (Example 26); type: in vivo, ICR mouse; conditions: 1 mg/kg/day, 30 days
Experimental: 24R,25-(OH)2 -D3 was dissolved in Panacete® 810 containing 1% by weight of ethanol, and the solution was forcibly p.o. administered once a day for 30 continuous days to each male or female ICR mouse of the groups shown in Table 20 at each one of the daily dose rates also shown in Table 20.
As the control, Panacete 810 was solely and forcibly p.o. administered to the mice of the same strain once a day for 30 continuous days.

tumour = assay: Anti-tumour experiments using mouse and rat as the host; type: in vivo
calcium level in serum [2] = conditions: healthy dog, continuous injection 20 min into thyroid artery; cited from earlier work
calcium level in serum [3] = conditions: dog with hyper-parathyreosis, thyroid arterial route; cited from earlier work
calcium level in serum [4] = conditions: normal person, 250 micrograms oral; cited from earlier work
calcium level in serum [5] = conditions: patients suffering from hypocalcemia; cited from earlier work
magnesium level in serum [6] = conditions: thyroidectomized and parathyroidectomized rats, administered once; cited from earlier work
magnesium level in serum [7] = conditions: bilateral nephrectomy rats; cited from earlier work

## C=C1CC[C@H](O)C/C1=C/C=C1\CCC[C@]2(C)[C@@H]([C@H](C)CCC(O)C(C)(C)O)CC[C@@H]12 (stereo partly shown) [24,25-(OH)2 -D3, 24,25-dihydroxycholecalciferol]
Blood sugar level
  blood sugar level: significant reduction of the blood sugar level was observed
[1]
  biochemical examination of the blood and autopsy: any significant abnormal findings were not observed
tumour
  anti-tumour effect in vivo: anti-tumour effect of the compound was confirmed
Calcium level in serum [2]
  Calcium level in serum: showed a temporary reduction
Calcium level in serum [3]
  Calcium level in serum: did not change the dog's calcium level in serum
Calcium level in serum [4]
  Calcium level in serum: did not cause the significant change of calcium level
Calcium level in serum [5]
  Calcium level in serum: non of them reported the case where the calcium level in the patient's serum showed a significant change
Magnesium level in serum [6]
  magnesium clearance: did not affect the magnesium level in serum thereof and the magnesium clearance thereof
  magnesium level in serum: did not affect the magnesium level in serum
Magnesium level in serum [7]
  magnesium level in serum: did not affect significantly the magnesium level in serum
